Test results reported in patent US20170232083A1, “METHODS OF DIAGNOSIS AND TREATMENT OF CELIAC DISEASE IN CHILDREN” (priority 2014, published 2017).
Several values for one entry are separate records, joined by “and”; a condition that tells them apart may be missing. Equal values may be shown once. Non-standard residues stand in square brackets, D forms with d. pGlu = O=C1CC[C@@H](C(=O)O)N1

System: peripheral blood mononuclear cells obtained from children
Assay: IFNγ ELISpot PBMC assay after oral wheat bread challenge (Examples 1-2)
Type: cell-based, human
Details: for T cell response in PBMC samples from children after gluten challenge: general increase in SFU in each child, Tables 2-5
Procedure: An oral wheat bread challenge was conducted in DQ2.5+ children and adolescents having Celiac disease. The age ranges were 3-5, 6-10 and 11-18 years of age. An ELISpot peripheral blood mononucleated cell (PBMC) assay was performed to measure the level of IFNγ released by the PBMCs after being contacted with peptide 1, peptide 2, peptide 3, or a combination thereof. The identities of peptides 1, 2, and 3 are shown below.
The values the rows starting from “Blank (SFU)” and ending at “Pept-1/2/3 (150)” are all spot forming unit (SFU) values. The values in the parentheses in the first column are the concentration of each peptide in micrograms that were added to the PBMCs (e.g., Pept-1 50=50 micrograms of Peptide 1, Pept-1/2/3 50=50 micrograms of each of Peptide 1, Peptide 2, and Peptide 3). Pept-1=Peptide 1, Pept-2=Peptide 2, Pept-3=Peptide 3, the amino acid identities of which are mentioned above. D-Gli=deamidated gliadin. WT-Gli=wild-type gliadin. D-Glut=deamidated gluten. WT-Glut=wild-type gluten.
IFNγ ELISpot responses in 9 older children (11-17 yo) and 6 younger children (3-10 yo) were stimulated by the mixture of peptides 1, 2, and 3 described in Example 1 (each peptide at a concentration of 25 ug/mL) or stimulated by deamidated gliadin (100 ug/mL) after 3-day wheat challenge (r2=0.8, p<0.0001). The ELISpot responses were similar using either the peptide mixture of the deamidated gliadin (FIG. 1).

[1] = Subject C, 5.0 × 10^5 cells per well, 50 micrograms
[2] = Subject G, 4.0 × 10^5 cells per well, 25 micrograms

Sequence: EQPFPQPEQPFPWQP ([pGlu]QPFPQPEQPFPWQP-NH2; SMILES NC(=O)CC[C@H](NC(=O)[C@H](Cc1c[nH]c2ccccc12)NC(=O)[C@@H]1CCCN1C(=O)[C@H](Cc1ccccc1)NC(=O)[C@@H]1CCCN1C(=O)[C@H](CCC(N)=O)NC(=O)[C@H](CCC(=O)O)NC(=O)[C@@H]1CCCN1C(=O)[C@H](CCC(N)=O)NC(=O)[C@@H]1CCCN1C(=O)[C@H](Cc1ccccc1)NC(=O)[C@@H]1CCCN1C(=O)[C@H](CCC(N)=O)NC(=O)[C@@H]1CCC(=O)N1)C(=O)N1CCC[C@H]1C(N)=O) [Peptide 2]
- most active peptides in gliadin for children: most active
- SFU, IFNγ ELISpot (Subject A, 5.0 × 10^5 cells per well, 50 micrograms, listed as Pept-2): 4 SFU and 3 SFU
- SFU, IFNγ ELISpot (Subject A, 5.0 × 10^5 cells per well, 100 micrograms, listed as Pept-2): 5 SFU and 3 SFU
- SFU, IFNγ ELISpot (Subject B, 5.0 × 10^5 cells per well, 25 micrograms, listed as Pept-2): 4 SFU and 6 SFU
- SFU, IFNγ ELISpot (Subject B, 5.0 × 10^5 cells per well, 50 micrograms, listed as Pept-2): 7 SFU and 8 SFU
- SFU, IFNγ ELISpot [1]: 4 SFU
- SFU, IFNγ ELISpot (Subject D, 4.0 × 10^5 cells per well, 25 micrograms, listed as Pept-2): 17 SFU and 30 SFU
- SFU, IFNγ ELISpot (Subject D, 4.0 × 10^5 cells per well, 50 micrograms, listed as Pept-2): 29 SFU and 32 SFU
- SFU, IFNγ ELISpot (Subject E, 5.0 × 10^5 cells per well, 25 micrograms, listed as Pept-2): 55 SFU and 45 SFU
- SFU, IFNγ ELISpot (Subject E, 5.0 × 10^5 cells per well, 50 micrograms, listed as Pept-2): 45 SFU and 43 SFU
- SFU, IFNγ ELISpot (Subject E, 5.0 × 10^5 cells per well, 100 micrograms, listed as Pept-2): 67 SFU and 44 SFU
- SFU, IFNγ ELISpot (Subject F, 5.0 × 10^5 cells per well, 25 micrograms, listed as Pept-2): 44 SFU and 59 SFU
- SFU, IFNγ ELISpot (Subject F, 5.0 × 10^5 cells per well, 50 micrograms, listed as Pept-2): 64 SFU and 105 SFU
- SFU, IFNγ ELISpot (Subject F, 5.0 × 10^5 cells per well, 100 micrograms, listed as Pept-2): 41 SFU and 59 SFU
- SFU, IFNγ ELISpot [2]: 7 SFU
- SFU, IFNγ ELISpot (Subject G, 4.0 × 10^5 cells per well, 100 micrograms, listed as Pept-2): 5 SFU and 9 SFU
- SFU, IFNγ ELISpot (Subject I, 5.0 × 10^5 cells per well, 25 micrograms): 7 SFU
- SFU, IFNγ ELISpot (Subject I, 5.0 × 10^5 cells per well, 50 micrograms, listed as Pept-2): 5 SFU and 6 SFU
- SFU, IFNγ ELISpot (Subject J, 5.0 × 10^5 cells per well, 25 micrograms, listed as Pept-2): 85 SFU and 98 SFU
- SFU, IFNγ ELISpot (Subject J, 5.0 × 10^5 cells per well, 50 micrograms, listed as Pept-2): 107 SFU and 83 SFU
- SFU, IFNγ ELISpot (Subject J, 5.0 × 10^5 cells per well, 100 micrograms, listed as Pept-2): 81 SFU and 90 SFU
- SFU, IFNγ ELISpot (Subject K, 3.2 × 10^5 cells per well, 25 micrograms, listed as Pept-2): 17 SFU and 22 SFU
- SFU, IFNγ ELISpot (Subject K, 3.2 × 10^5 cells per well, 50 micrograms, listed as Pept-2): 19 SFU and 18 SFU
- SFU, IFNγ ELISpot (Subject K, 3.2 × 10^5 cells per well, 100 micrograms, listed as Pept-2): 23 SFU and 15 SFU
- SFU, IFNγ ELISpot (Subject L, 3.5 × 10^5 cells per well, 25 micrograms, listed as Pept-2): 5 SFU and 4 SFU
- SFU, IFNγ ELISpot (Subject L, 3.5 × 10^5 cells per well, 100 micrograms, listed as Pept-2): 2 SFU and 4 SFU
- SFU, IFNγ ELISpot (Subject M, 2.3 × 10^5 cells per well, 25 micrograms, listed as Pept-2): 28 SFU and 27 SFU
- SFU, IFNγ ELISpot (Subject M, 2.3 × 10^5 cells per well, 50 micrograms, listed as Pept-2): 26 SFU and 29 SFU
- SFU, IFNγ ELISpot (Subject M, 2.3 × 10^5 cells per well, 100 micrograms, listed as Pept-2): 32 SFU and 24 SFU
- SFU, IFNγ ELISpot (Subject N, 2.4 × 10^5 cells per well, 100 micrograms, listed as Pept-2): 4 SFU and 7 SFU
- SFU, IFNγ ELISpot (Subject P, 3.0 × 10^5 cells per well, 0.5 micrograms, listed as Pept-2): 10 SFU and 8 SFU
- SFU, IFNγ ELISpot (Subject P, 3.0 × 10^5 cells per well, 1 micrograms, listed as Pept-2): 18 SFU and 11 SFU
- SFU, IFNγ ELISpot (Subject P, 3.0 × 10^5 cells per well, 5 micrograms, listed as Pept-2): 19 SFU and 15 SFU
- SFU, IFNγ ELISpot (Subject Q, 3.0 × 10^5 cells per well, 0.5 micrograms, listed as Pept-2): 44 SFU and 51 SFU
- SFU, IFNγ ELISpot (Subject Q, 3.0 × 10^5 cells per well, 1 micrograms, listed as Pept-2): 31 SFU and 41 SFU
- SFU, IFNγ ELISpot (Subject Q, 3.0 × 10^5 cells per well, 2.5 micrograms, listed as Pept-2): 44 SFU and 51 SFU
- SFU, IFNγ ELISpot (Subject Q, 3.0 × 10^5 cells per well, 5 micrograms, listed as Pept-2): 30 SFU
- SFU, IFNγ ELISpot (Subject R, 3.0 × 10^5 cells per well, 0.1 micrograms, listed as Pept-2): 18 SFU and 20 SFU
- SFU, IFNγ ELISpot (Subject R, 3.0 × 10^5 cells per well, 0.5 micrograms, listed as Pept-2): 16 SFU and 14 SFU
- SFU, IFNγ ELISpot (Subject R, 3.0 × 10^5 cells per well, 1 micrograms, listed as Pept-2): 15 SFU and 11 SFU
- SFU, IFNγ ELISpot (Subject R, 3.0 × 10^5 cells per well, 5 micrograms, listed as Pept-2): 16 SFU
- SFU, IFNγ ELISpot (Subject S, 3.0 × 10^5 cells per well, 0.5 micrograms, listed as Pept-2): 2 SFU and 1 SFU
- SFU, IFNγ ELISpot (Subject S, 3.0 × 10^5 cells per well, 1 micrograms, listed as Pept-2): 5 SFU and 3 SFU
- SFU, IFNγ ELISpot (Subject S, 3.0 × 10^5 cells per well, 2.5 micrograms, listed as Pept-2): 2 SFU and 3 SFU
- SFU, IFNγ ELISpot (Subject S, 3.0 × 10^5 cells per well, 5 micrograms, listed as Pept-2): 5 SFU
- SFU, IFNγ ELISpot (Subject T, 3.0 × 10^5 cells per well, 0.1 micrograms, listed as Pept-2): 33 SFU and 47 SFU
- SFU, IFNγ ELISpot (Subject T, 3.0 × 10^5 cells per well, 0.5 micrograms, listed as Pept-2): 34 SFU and 39 SFU
- SFU, IFNγ ELISpot (Subject T, 3.0 × 10^5 cells per well, 1 micrograms, listed as Pept-2): 41 SFU and 51 SFU
- SFU, IFNγ ELISpot (Subject T, 3.0 × 10^5 cells per well, 2.5 micrograms, listed as Pept-2): 49 SFU and 56 SFU
- SFU, IFNγ ELISpot (Subject T, 3.0 × 10^5 cells per well, 5 micrograms, listed as Pept-2): 68 SFU
- SFU, IFNγ ELISpot (Subject U, 3.0 × 10^5 cells per well, 0.1 micrograms, listed as Pept-2): 8 SFU and 6 SFU
- SFU, IFNγ ELISpot (Subject U, 3.0 × 10^5 cells per well, 0.5 micrograms, listed as Pept-2): 8 SFU and 12 SFU
- SFU, IFNγ ELISpot (Subject U, 3.0 × 10^5 cells per well, 1 micrograms, listed as Pept-2): 13 SFU and 15 SFU
- SFU, IFNγ ELISpot (Subject U, 3.0 × 10^5 cells per well, 2.5 micrograms, listed as Pept-2): 26 SFU and 33 SFU
- SFU, IFNγ ELISpot (Subject U, 3.0 × 10^5 cells per well, 5 micrograms, listed as Pept-2): 28 SFU
- T cell response in PBMC samples from children after gluten challenge: induce a T cell response

Sequence: EPEQPIPEQPQPYPQQ ([pGlu]PEQPIPEQPQPYPQQ-NH2; SMILES CC[C@H](C)[C@H](NC(=O)[C@@H]1CCCN1C(=O)[C@H](CCC(N)=O)NC(=O)[C@H](CCC(=O)O)NC(=O)[C@@H]1CCCN1C(=O)[C@@H]1CCC(=O)N1)C(=O)N1CCC[C@H]1C(=O)N[C@@H](CCC(=O)O)C(=O)N[C@@H](CCC(N)=O)C(=O)N1CCC[C@H]1C(=O)N[C@@H](CCC(N)=O)C(=O)N1CCC[C@H]1C(=O)N[C@@H](Cc1ccc(O)cc1)C(=O)N1CCC[C@H]1C(=O)N[C@@H](CCC(N)=O)C(=O)N[C@@H](CCC(N)=O)C(N)=O) [Peptide 3]
- SFU, IFNγ ELISpot (Subject A, 5.0 × 10^5 cells per well, 50 micrograms): 0 SFU
- SFU, IFNγ ELISpot [1]: 3 SFU
- SFU, IFNγ ELISpot (Subject D, 4.0 × 10^5 cells per well, 25 micrograms, listed as Pept-3): 2 SFU and 4 SFU
- SFU, IFNγ ELISpot (Subject D, 4.0 × 10^5 cells per well, 50 micrograms): 2 SFU
- SFU, IFNγ ELISpot (Subject D, 4.0 × 10^5 cells per well, 100 micrograms, listed as Pept-3): 2 SFU and 4 SFU
- SFU, IFNγ ELISpot (Subject E, 5.0 × 10^5 cells per well, 25 micrograms): 3 SFU
- SFU, IFNγ ELISpot (Subject E, 5.0 × 10^5 cells per well, 50 micrograms): 6 SFU
- SFU, IFNγ ELISpot (Subject E, 5.0 × 10^5 cells per well, 100 micrograms, listed as Pept-3): 3 SFU and 4 SFU
- SFU, IFNγ ELISpot [2]: 0 SFU
- SFU, IFNγ ELISpot (Subject H, 3.5 × 10^5 cells per well, 25 micrograms, listed as Pept-3): 1 SFU and 2 SFU
- SFU, IFNγ ELISpot (Subject H, 3.5 × 10^5 cells per well, 50 micrograms, listed as Pept-3): 2 SFU and 4 SFU
- SFU, IFNγ ELISpot (Subject I, 5.0 × 10^5 cells per well, 50 micrograms): 1 SFU
- SFU, IFNγ ELISpot (Subject J, 5.0 × 10^5 cells per well, 25 micrograms, listed as Pept-3): 4 SFU and 2 SFU
- SFU, IFNγ ELISpot (Subject J, 5.0 × 10^5 cells per well, 50 micrograms, listed as Pept-3): 2 SFU and 3 SFU
- SFU, IFNγ ELISpot (Subject J, 5.0 × 10^5 cells per well, 100 micrograms, listed as Pept-3): 1 SFU and 2 SFU
- SFU, IFNγ ELISpot (Subject K, 3.2 × 10^5 cells per well, 25 micrograms, listed as Pept-3): 2 SFU and 3 SFU
- SFU, IFNγ ELISpot (Subject K, 3.2 × 10^5 cells per well, 50 micrograms, listed as Pept-3): 2 SFU and 1 SFU
- SFU, IFNγ ELISpot (Subject L, 3.5 × 10^5 cells per well, 25 micrograms): 1 SFU
- SFU, IFNγ ELISpot (Subject M, 2.3 × 10^5 cells per well, 25 micrograms): 0 SFU
- SFU, IFNγ ELISpot (Subject M, 2.3 × 10^5 cells per well, 100 micrograms): 0 SFU
- SFU, IFNγ ELISpot (Subject N, 2.4 × 10^5 cells per well, 50 micrograms, listed as Pept-3): 2 SFU and 1 SFU
- SFU, IFNγ ELISpot (Subject N, 2.4 × 10^5 cells per well, 100 micrograms): 0 SFU
- SFU, IFNγ ELISpot (Subject P, 3.0 × 10^5 cells per well, 50 micrograms, listed as Pept-3): 8 SFU and 6 SFU
- SFU, IFNγ ELISpot (Subject Q, 3.0 × 10^5 cells per well, 50 micrograms, listed as Pept-3): 1 SFU and 2 SFU
- SFU, IFNγ ELISpot (Subject R, 3.0 × 10^5 cells per well, 50 micrograms, listed as Pept-3): 12 SFU and 9 SFU
- SFU, IFNγ ELISpot (Subject W, 3.0 × 10^5 cells per well, 50 micrograms): 8 SFU
- SFU, IFNγ ELISpot (Subject Y, 2.29 × 10^5 cells per well, 50 micrograms): 3 SFU
- T cell response in PBMC samples from children after gluten challenge: induce a T cell response
